Results as given in US20260062447A1, “COMPOUNDS” (UNIVERSITY OF SOUTHAMPTON, priority 2022, published 2026).
Values belong to the compound of their own block, whether it stands above or below them. Where a SMILES comes first, the peptide text is derived from it. [ ]: non-standard residue; d: D form. Phe(4-CF3) = N[C@@H](Cc1ccc(C(F)(F)F)cc1)C(=O)O; Phe(4-Br) = N[C@@H](Cc1ccc(Br)cc1)C(=O)O; Nle = CCCC[C@H](N)C(=O)O

Legend:
[1] = system: HIF-1a driven transcription in U2OS HRE readout cell line; assay: U2OS HRE readout assay (EYFP expression); type: cell-based
[2] = system: HIF-1a driven transcription in Panc HRE readout cell line; assay: Panc HRE readout cell line (EYFP expression); type: cell-based
HIF-1α PAS-B domain = HIF-1α PAS-B domain (Homo sapiens, UniProt Q16665); assay: Microscale thermophoresis (MST) binding to HIF-1α PAS-B domain; conditions: for binding affinity by MST, in words: compared within the derivative series or to the unsubstituted peptide
HIF-1α PAS-B domain, sequence (Q16665 238-349 limits assumed): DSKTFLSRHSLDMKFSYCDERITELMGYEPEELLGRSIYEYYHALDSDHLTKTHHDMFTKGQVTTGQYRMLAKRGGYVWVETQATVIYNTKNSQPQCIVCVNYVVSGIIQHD
Protocol: The impact of these substitutions on the binding affinity was then assessed by MST.
An aliquot of labelled HIF-1α PAS-B was thawed on ice and diluted to 50 nM with HIF MST assay buffer, before being centrifuged at 12,000 rpm for 15 minutes. […] Samples were loaded into NanoTemper® Monolith NT.115 premium treated capillaries and measurements were carried out using a Monolith NT.115 system at 25° C. using 50% MST power and 50% LED power. Data was analysed by NanoTemper® analysis software. Binding curves were fitted using GraphPad Prism 8 software.

[3] = system: HIF-1 three-domain protein binding to FAM-HRE; assay: Fluorescence polarization assay of HIF-1 binding to FAM-HRE; type: biochemical; conditions: for IC50: FP assay, read-out: IC50 of inhibition of HIF DNA (FAM-HRE) binding
Protocol: (§1) HIF-1 three-domain protein was thawed on ice and diluted to 150 nM in HIF FP buffer. Compounds for analysis were serially diluted in DMSO to give 10× stocks. The compounds (10 μL, 100% DMSO) were then added to the protein (80 μL). The samples were then incubated at room temperature for 30 minutes. FAM-HRE (10 μL, 20 nM) was then added and the samples loaded into a 384 well solid black non-binding microplate (Corning, USA). The fluorescence polarization of each well was then measured using gain and focus settings optimized by the used software set to a signal of 400 mP on a control well.
An FP assay utilizing a FAM labelled HRE was used and CK-NL-F(CF3)IF(Br) assessed.
as §1, with “compounds (10 μl, 100% DMSO)” for “compounds (10 μL, 100% DMSO)”

[4] = target: T1, His-HIF-1α PAS-B domain with FLAG-HIF-1β PAS-B domain (Homo sapiens, UniProt Q16665); assay: ELISA of HIF-1α PAS-B / HIF-1β PAS-B heterodimerization; type: biochemical; conditions: read-out: IC50 of disruption of HIF-1α-HIF-1β PAS-B-PAS-B dimer formation
T1 construct: heterodimerization of His-HIF-1α PAS-B domain with FLAG-HIF-1β PAS-B domain analysed by ELISA
T1 sequence (Q16665 238-349 limits assumed): as above
Protocol: FIG. 9‥Effects of (CONC) CK-n-leu-F(CF3)IF(Br) [SEQ ID NO: 40 Cys lys NL phe(CF3) ile phe(Br)] on the heterodimerization of His-HIF-1α PAS-B domain with FLAG-HIF-1β PAS-B domain analysed by ELISA.
The ability of CK-n-leu-F(CF3)IF(Br) to disrupt the HIF-1α-HIF-1β PAS-B-PAS-B PPI was then assessed via an ELISA assay.
To each well of a clear Pierce nickel coated 96-well plate (Thermo Scientific), purified Hiss-HIF-1α PAS-B protein in HIP buffer was added (25 μL, 0.1 μM), the plate was then incubated for 1 hr at RT with rocking. The wells were then washed 2× with HIF buffer (150 μL) and 1× with PBS Tween (0.05% Tween 20, 150 μL). 2% milk in PBS Tween (150 μL) was then added to each well and incubated for 1 hr at RT with rocking as a blocking step. The wells were then washed 2×PBS Tween (150 μL) and 1× with HIF buffer (150 μL). For HIF-B dimerisation a serial dilution of HIF-1β PAS-B ranging from 250 μM to 11 nM in HIF buffer (100 μL) was then added. […] The plate was then incubated at RT for 1 hr with rocking. The wells were then washed 2× with HIF buffer (150 μL) and 1× with PBS Tween (150 μL), A 1:1000 dilution of mouse anti-flag antibody in 2% milk PBS Tween (50 μL) was then added to each well and the plate incubated for a further hour at RT with rocking. […] H2SO4(aq) (2 M, 100 μL) was then added to each well and the absorbance at 450 nm determined on a BMG Clariostar plate reader.

[5] = Cytotox-Glo toxicity assay; type: cell-based; conditions: doses 50 uM
HeLa cells = assay: Cell internalization of the fluorescent peptide, PMT detection at 405 nm; type: cell-based
From the text: (§2) FIG. 11—A) Structure of cyclic peptide that incorporates a coumaryl motif at the phenylalanine position CLL-Cou-VY [SEQ ID NO: 39 Cys leu leu cou val tyr]. B) MST analysis of CLL-Cou-VY. C) The peptide was seen to be internalized in HeLa cells upon visualization with PMT detection at 405 nm. […] E) HIF-1α immunofluorescence under control conditions showing that without treatment HIF-1a localizes to the nucleus.
We therefore made a peptide with a coumaryl motif incorporated at the phenylalanine position the compound, CLL-Cou-VY, shown in FIG. 11 was seen to be internalized in HeLa cells upon visualization with PMT detection at 405 nm.

[6] = system: HIF-1α nuclear localization; assay: HIF-1α immunofluorescence (nuclear localization); type: cell-based
From the text: as §2

[7] = target: T2, HIF-1α PAS-B domain mutant C255A (Homo sapiens, UniProt Q16665, C255A); assay: MST binding to cysteine mutant HIF-1α PAS-B C255A; conditions: site-directed mutagenesis
T2 construct: made in house
T2 sequence (Q16665 238-349 C255A limits assumed): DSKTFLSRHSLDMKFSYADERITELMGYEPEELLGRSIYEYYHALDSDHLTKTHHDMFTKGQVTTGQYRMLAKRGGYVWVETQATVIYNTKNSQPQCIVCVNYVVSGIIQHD
Protocol: (§3) One rationalization would be that the peptide binding is disulphide-mediated. Whilst this was thought to be unlikely as all assays were performed in the presence of the reducing agent TCEP, it was decided that the possibility would be further investigated via site-directed mutagenesis (SDM). The three cysteine residues within the HIF-1α PAS-B domain were sequentially mutated to alanine. The affinity of cyclo-CLLFVY for the resultant mutant proteins C255A, C344A and C337A was then assessed by MST.
(§4) An aliquot of labelled HIF-1α PAS-B was thawed on ice and diluted to 50 nM with HIF MST assay buffer, before being centrifuged at 12,000 rpm for 15 minutes. The compound was then serially diluted in DMSO to give 10× stocks. These were then diluted 1:5 in HIF MST assay buffer to give 2× stocks, before finally being mixed 1:1 (v/v) with the labelled protein to give a final concertation of 25 nM protein and a final DMSO content of 10%. Samples were loaded into NanoTemper® Monolith NT.115 premium treated capillaries and measurements were carried out using a Monolith NT.115 system at 25° C. using 50% MST power and 50% LED power. Data was analysed by NanoTemper® analysis software. Binding curves were fitted using GraphPad Prism 8 software.

[8] = target: T3, HIF-1α PAS-B domain mutant C337A (Homo sapiens, UniProt Q16665, C337A); assay: MST binding to cysteine mutant HIF-1α PAS-B C337A; conditions: site-directed mutagenesis
T3 construct: made in house
T3 sequence (Q16665 238-349 C337A limits assumed): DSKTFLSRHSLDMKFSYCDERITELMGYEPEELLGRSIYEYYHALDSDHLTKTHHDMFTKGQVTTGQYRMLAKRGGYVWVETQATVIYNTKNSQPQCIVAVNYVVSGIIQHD
Protocol: as §3, §4

[9] = system: HIF-1α PAS-B domain mutant C344A; assay: MST binding to cysteine mutant HIF-1α PAS-B C344A; conditions: site-directed mutagenesis
Protocol: as §3, §4

SMILES: CCCC[C@@H]1NC(=O)[C@H](CC(C)C)NC(=O)[C@H](CS)NC(=O)[C@H](Cc2ccc(Br)cc2)NC(=O)[C@H]([C@@H](C)CC)NC(=O)[C@H](Cc2ccc(O)cc2)NC1=O [CL-n-leu-F(CF3)IF(Br), Cys leu n-leu phe(CF3) ile phe(4-Br)] (cyclo(CL[Nle]YI[Phe(4-Br)]))
expression of EYFP [1]: inhibited the expression of EYFP

SMILES: CCCC[C@@H]1NC(=O)[C@H](CCCCN)NC(=O)[C@H](CS)NC(=O)[C@H](Cc2ccc(Br)cc2)NC(=O)[C@H]([C@@H](C)CC)NC(=O)[C@H](Cc2ccc(C(F)(F)F)cc2)NC1=O [CK-n-leu-F(CF3)IF(Br), Cys lys n-leu phe(CF3) ile phe(4-Br)] (cyclo(CK[Nle][Phe(4-CF3)]I[Phe(4-Br)]))
expression of EYFP [2]: inhibited the expression of EYFP
Kd (HIF-1α PAS-B domain; MST, HIF-1α PAS-B domain): 1.66 ± 0.3 µM
compatibility with FP assay / direct binding to FAM-HRE ([3]; peptide itself with FAM labelled HRE): bind to the FAM-HRE directly
IC50 [4]: 27.7 ± 14 µM
toxicity [5]: not toxic

SMILES: NC(CCS)C(=O)O (centres unmarked) [homocysteine, h-cys leu leu phe val tyr]
binding affinity by MST, in words (HIF-1α PAS-B domain): comparable affinities

SMILES: CC(C)C[C@@H]1NC(=O)[C@H](CS)NC(=O)[C@H](Cc2ccc(Br)cc2)NC(=O)[C@H](C(C)C)NC(=O)[C@H](Cc2ccc(C(F)(F)F)cc2)NC(=O)[C@H](CC(C)C)NC1=O [CLLF(CF3)IF(Br), Cys leu leu phe(CF3) ile phe(4-Br)]
binding affinity by MST, in words (HIF-1α PAS-B domain): best affinity
IC50 [3]: 11.8 ± 1.1 µM

SMILES: CC(C)C[C@@H]1NC(=O)[C@H](CS)NC(=O)[C@H](Cc2ccc(O)cc2)NC(=O)[C@H](C(C)C)NC(=O)[C@H](CCc2cc(=O)oc3cc(O)ccc23)NC(=O)[C@H](CC(C)C)NC1=O [CLL-Cou-VY, Cys Leu Leu Cou Val Tyr]
internalization in cells (HeLa cells): internalized
effect on HIF-1α nuclear localization [6]: preventing HIF-1α nuclear localization

Further lines, with some results ahead:

binding affinity by MST, in words (HIF-1α PAS-B domain): comparable affinities
SMILES: CC(C)C[C@@H]1NC(=O)[C@H](CC(C)C)NC(=O)[C@@H](CS)NC(=O)[C@H](Cc2ccc(O)cc2)NC(=O)[C@H](C(C)C)NC(=O)[C@H](Cc2ccccc2)NC1=O [D-cysteine, d-cys leu leu phe val tyr]

fold improvement in affinity compared to the parent peptide CLLFVY (HIF-1α PAS-B domain; MST Kd relative to CLLFVY): 6 fold
SMILES: CC(C)C[C@@H]1NC(=O)[C@H](CS)NC(=O)[C@H](Cc2ccc(O)cc2)NC(=O)[C@H](C(C)C)NC(=O)[C@H](Cc2ccc3ccccc3c2)NC(=O)[C@H](CC(C)C)NC1=O [Nal, Cys leu leu Nal val tyr]

IC50 [3]: 76.5 ± 8 µM
SMILES: CC(C)C[C@@H]1NC(=O)[C@H](CS)NC(=O)[C@H](Cc2ccc(O)cc2)NC(=O)[C@H](C(C)C)NC(=O)[C@H](Cc2ccccc2)NC(=O)[C@H](CC(C)C)NC1=O [CLLFVY, Cys leu leu phe val tyr]
binding activity for mutant protein C255A [7]: binding activity is retained
binding activity for mutant protein C337A [8]: binding activity is retained
binding activity for mutant protein C344A [9]: binding activity is retained
